Laboratory results: patent US5049570A, “Pyridylphenyl nitrogen heterocycle-substituted carbinols and derivatives thereof with anti-inflammatory activity” (Du Pont Merck Pharmaceutical Company, priority 1990, dated 1991)

system: inflammation induced by tetradecanoyl phorbol acetate (TPA), ears of mice; assay: TPA model: inhibition of tetradecanoyl phorbol acetate (TPA)-induced ear swelling (edema) in mice; assay type: in vivo; parameters: dose or concentration left out as unconfirmed; conditions: Mus musculus, topical, 4 h, applied to the ears in a vehicle such as acetone, edema measured four hours later, read-out: % inhibition of control swelling
Excerpt: One such model is inflammation induced by tetradecanoyl phorbol acetate (TPA), modified from the method of Kuehl et al., Nature, 1977, 265, 170; and Van Arman, Clin. Pharmacol. Ther., 1974, 16, 900. The TPA model mimics many of the inflammatory changes which occur in human diseases such as psoriasis, since elevated levels of inflammatory arachidonic acid metabolites are found and an influx of polymorphonuclear leukocytes is observed.
The test procedure used to evaluate the compounds of formula (I) is as follows: the test compound […] was applied to the ears of mice in an appropriate vehicle, such as acetone, and then TPA, the inflammatory stimulus was applied to the right ear. Four hours later, the edema was measured by removing standard size discs from the ears using a biopsy punch. The weights of the ears were determined, and the suppression of the swelling observed in animals not treated with the test compound was determined.

| SMILES | inhibition in vivo |
| --- | --- |
| OC(Cn1ccnc1)(c1ccc(F)cc1)c1ccc(-c2ccncc2)cc1 (centres unmarked) [Example 1, 1-(4-fluorophenyl)-1-[4-(4-pyridyl)phenyl]-2-(1-imidazolyl)ethanol] | 72% |
| OC(Cn1ccnc1)(c1ccc(-c2ccccn2)cc1)c1ccc(F)cc1F (centres unmarked) [Example 2] | 51% |
| OC(Cn1ccnc1)(c1ccc(F)cc1)c1ccc(-c2ccccn2)cc1 (centres unmarked) [Example 3] | 63% |
| OC(Cn1ccnc1)(c1ccc(-c2cccnc2)cc1)c1ccc(F)cc1F (centres unmarked) [Example 4] | 52% |
| OC(Cn1ccnc1)(c1ccc(-c2ccncc2)cc1)c1ccc(F)cc1F (centres unmarked) [Example 5, 1-(2,4-difluorophenyl)-1-[4-(4-pyridyl)phenyl]-2-(1-imidazolyl)ethanol] | 73% |
| OC(Cn1ccnc1)(c1ccc(F)cc1)c1cccc(-c2ccccn2)c1 (centres unmarked) [Example 6] | 61% |
| OC(Cn1ccnc1)(c1ccc(F)cc1)c1cccc(-c2cccnc2)c1 (centres unmarked) [Example 7] | 64% |
| OC(Cn1ccnc1)(c1ccc(F)cc1)c1cccc(-c2ccncc2)c1 (centres unmarked) [Example 8, 1-(4-fluorophenyl)-1-[3-(4-pyridyl)phenyl]-2-(1-imidazolyl)ethanol] | 69% |
| OC(Cn1ccnc1)(c1ccccc1)c1ccc(-c2ccncc2)cc1 (centres unmarked) [Example 9] | 46% |
| OC(Cn1ccnc1)(c1ccc(-c2ccncc2)cc1)c1ccccc1Cl (centres unmarked) [Example 10] | 63% |
| Cc1ccc(C(O)(Cn2ccnc2)c2ccc(-c3ccncc3)cc2)cc1 (centres unmarked) [Example 11, 1-(4-methylphenyl)-1-[4-(4-pyridyl)phenyl]-2-(1-imidazolyl)ethanol] | 62% |
| COc1ccc(C(O)(Cn2ccnc2)c2ccc(-c3ccncc3)cc2)cc1 (centres unmarked) [Example 12, 1-(4-methoxyphenyl)-1-[4-(4-pyridyl)phenyl]-2-(1-imidazolyl)ethanol] | 74% |
| OC(Cn1ccnc1)(c1ccc(-c2ccncc2)cc1)c1ccc(C(F)(F)F)cc1 (centres unmarked) [Example 21, 1-(4-trifluoromethylphenyl)-1-[4-(4-pyridyl)phenyl]-2-(1-imidazolyl)ethanol] | 66% |
| OC(Cn1ccnc1)(c1ccc(Cl)cc1)c1ccc(-c2ccncc2)cc1 (centres unmarked) [Example 22, 1-(4-chlorophenyl)-1-[4-(4-pyridyl)phenyl]-2-(1-imidazolyl)ethanol] | 79% |
